Non-standard residues stand in square brackets, D forms with d. Residues, ends and D or L forms follow the SMILES beside them. *: point of attachment. Propanoyl(3-indol-3-yl) = O=C(CCc1c[nH]c2ccccc12)*; 2Nal = N[C@@H](Cc1ccc2ccccc2c1)C(=O)O; Arg(Me) = CNC(=N)NCCC[C@H](N)C(=O)O; Cha = N[C@@H](CC1CCCCC1)C(=O)O; X4 = NC(=S)[C@H](Cc1ccccc1)N*; azaGly = NNC(=O)O
Tests used:
[1] = target: T1, hOT7T175 (Homo sapiens, UniProt Q969F8, L364H); format: cell-based; settings: hOT7T175/CHO, FLIPR, evaluation for 40 seconds after initiation of the reaction
T1 construct: expressed in transfected cells
T1 sequence (Q969F8 whole entry L364H): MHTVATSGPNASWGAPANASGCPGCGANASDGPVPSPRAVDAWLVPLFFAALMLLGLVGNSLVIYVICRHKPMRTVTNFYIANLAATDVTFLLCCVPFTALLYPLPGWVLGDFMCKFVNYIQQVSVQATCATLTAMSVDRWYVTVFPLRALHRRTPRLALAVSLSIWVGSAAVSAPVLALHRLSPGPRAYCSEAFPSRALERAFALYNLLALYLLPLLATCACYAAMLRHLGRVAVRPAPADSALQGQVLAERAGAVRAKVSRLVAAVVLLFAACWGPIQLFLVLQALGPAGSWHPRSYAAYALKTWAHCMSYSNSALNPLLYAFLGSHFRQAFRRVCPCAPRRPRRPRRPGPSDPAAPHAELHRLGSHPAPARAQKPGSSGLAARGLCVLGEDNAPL
Experimental: The intracellular Ca ion level-increasing activity was measured using FLIPR as in TEST EXAMPLE 2.

[2] = target: T1, hOT7T175; assay: Intracellular Ca ion level-increasing activity using FLIPR (180 seconds; specific activity to Metastin (1-54)); format: cell-based; settings: hOT7T175/CHO, relative to Metastin (1-54) = 1

Compound	Specific Act. (EC50/MS10 EC50) [1]	Specific Act. (intracellular Ca ion level-increasing activity, specific activity to Metastin (1-54)) [2]
CNC(=N)NCCC[C@H](NC(=O)[C@H](CC(C)C)NC(=O)CNC(=O)[C@H](Cc1ccccc1)NC(=O)[C@@H](NC(=O)[C@H](CC(N)=O)NC(=O)[C@H](Cc1c[nH]c2ccccc12)NC(=O)[C@H](CC(N)=O)NC(=O)[C@H](N)Cc1ccc(O)cc1)[C@@H](C)O)C(=O)N[C@@H](Cc1ccccc1)C(N)=O [Compound No. 211] (H-[dY]NWNTFGL[Arg(Me)]F-NH2)	1.3	10
CC(C)C[C@H](NC(=O)CNC(=O)[C@H](Cc1ccccc1)NC(=O)[C@H](CO)NC(=O)[C@H](CC(N)=O)NC(=O)[C@H](Cc1c[nH]c2ccccc12)NC(=O)[C@H](CC(N)=O)NC(=O)[C@H](N)Cc1ccc(O)cc1)C(=O)N[C@@H](CCCNC(=N)N)C(=O)N[C@@H](Cc1ccccc1)C(N)=O [Compound No. 42]	1.6	30
CC(C)C[C@H](NC(=O)CNC(=O)[C@H](Cc1ccc2ccccc2c1)NC(=O)[C@H](CO)NC(=O)[C@H](CC(N)=O)NC(=O)[C@H](Cc1c[nH]c2ccccc12)NC(=O)[C@H](CC(N)=O)NC(=O)[C@@H](N)Cc1ccc(O)cc1)C(=O)N[C@@H](CCCNC(=N)N)C(=O)N[C@@H](Cc1ccccc1)C(N)=O [Compound No. 152, Tyr-Asn-Trp-Asn-Ser-Nal(2)-Gly-Leu-Arg-Phe-NH2] (H-YNWNS[2Nal]GLRF-NH2)	1.4	5
CC[C@H](C)[C@H](NC(=O)[C@H](CC(N)=O)NC(=O)[C@H](N)Cc1ccc(O)cc1)C(=O)N[C@@H](CC(N)=O)C(=O)N[C@@H](CO)C(=O)N[C@@H](Cc1ccccc1)C(=O)NCC(=O)N[C@@H](CC(C)C)C(=O)N[C@@H](CCCNC(=N)NC)C(=O)N[C@@H](Cc1ccccc1)C(N)=O [Compound No. 206] (H-[dY]NINSFGL[Arg(Me)]F-NH2)	4.8	10
CNC(=N)NCCC[C@H](NC(=O)[C@H](CC(C)C)NC(=O)NNC(=O)[C@H](Cc1ccccc1)NC(=O)[C@H](CO)NC(=O)[C@H](CC(N)=O)NC(=O)[C@@H](NC(=O)[C@H](N)Cc1ccc(O)cc1)[C@@H](C)O)C(=O)N[C@@H](Cc1ccccc1)C(N)=O [Compound No. 241, D-Tyr-Thr-Asn-Ser-Phe-AzaGly-Leu-Arg(Me)-Phe-NH2] (H-[dY]TNSF[azaGly]L[Arg(Me)]F-NH2)	5.3	1
CC(C)C[C@H](NC(=O)CNC(=O)[C@H](Cc1ccccc1)NC(=O)[C@H](CO)NC(=O)[C@H](CC(N)=O)NC(=O)[C@H](Cc1c[nH]c2ccccc12)NC(=O)[C@H](CC(N)=O)NC(=O)[C@H](N)Cc1ccc(O)cc1)C(=O)N[C@@H](CCCNC(=N)N)C(=O)N[C@@H](Cc1ccccc1)C(N)=S [Compound No. 146] (H-[dY]NWNSFGLR-X4)	1.5	10
H-YNWNSFGLRY-NH2 [Compound No. 109]	2.6	20
CNC(=N)NCCC[C@H](NC(=O)[C@H](CC(C)C)NC(=O)NNC(=O)[C@H](Cc1ccccc1)NC(=O)[C@H](CO)NC(=O)[C@H](CC(N)=O)NC(=O)[C@H](Cc1c[nH]c2ccccc12)NC(=O)[C@H](N)Cc1ccc(O)cc1)C(=O)N[C@@H](Cc1ccccc1)C(N)=O [Compound No. 222, D-Tyr-Trp-Asn-Ser-Phe-AzaGly-Leu-Arg(Me)-Phe-NH2] (H-[dY]WNSF[azaGly]L[Arg(Me)]F-NH2)	2.7	10
CNC(=N)NCCC[C@H](NC(=O)[C@H](CC(C)C)NC(=O)CNC(=O)[C@H](Cc1ccccc1)NC(=O)[C@H](CO)NC(=O)[C@H](CC(N)=O)NC(=O)[C@H](Cc1c[nH]c2ccccc12)NC(=O)[C@H](N)Cc1ccc(O)cc1)C(=O)N[C@@H](Cc1ccccc1)C(N)=O [Compound No. 217] (H-[dY]WNSFGL[Arg(Me)]F-NH2)	3.1	20
CNC(=N)NCCC[C@H](NC(=O)[C@H](CC(C)C)NC(=O)CNC(=O)[C@H](Cc1ccccc1)NC(=O)[C@H](CO)NC(=O)[C@H](C)NC(=O)[C@H](Cc1c[nH]c2ccccc12)NC(=O)[C@H](CC(N)=O)NC(=O)[C@H](N)Cc1ccc(O)cc1)C(=O)N[C@@H](Cc1ccccc1)C(N)=O [Compound No. 210] (H-[dY]NWASFGL[Arg(Me)]F-NH2)	9.3	1
CC(C)C[C@H](NC(=O)CNC(=O)[C@H](Cc1ccccc1)NC(=O)[C@H](CO)NC(=O)[C@H](CC(N)=O)NC(=O)[C@H](Cc1c[nH]c2ccccc12)NC(=O)[C@@H](CC(N)=O)NC(=O)[C@@H](N)Cc1ccc(O)cc1)C(=O)N[C@@H](CCCNC(=N)N)C(=O)N[C@@H](Cc1ccccc1)C(N)=O [Compound No. 41]	2.7	10
CNC(=N)NCCC[C@H](NC(=O)[C@H](CC(C)C)NC(=O)NNC(=O)[C@H](Cc1ccccc1)NC(=O)[C@H](CO)NC(=O)[C@H](CC(N)=O)NC(=O)[C@H](Cc1c[nH]c2ccccc12)NC(=O)[C@H](CC(N)=O)NC(=O)[C@H](N)Cc1ccc(O)cc1)C(=O)N[C@@H](Cc1ccccc1)C(N)=O [Compound No. 232, D-Tyr-Asn-Trp-Asn-Ser-Phe-AzaGly-Leu-Arg(Me)-Phe-NH2]	3.9	3
CC(C)C[C@H](NC(=O)CNC(=O)[C@H](CC1CCCCC1)NC(=O)[C@H](CO)NC(=O)[C@H](CC(N)=O)NC(=O)[C@H](Cc1c[nH]c2ccccc12)NC(=O)[C@H](CC(N)=O)NC(=O)[C@@H](N)Cc1ccc(O)cc1)C(=O)N[C@@H](CCCNC(=N)N)C(=O)N[C@@H](Cc1ccccc1)C(N)=O [Compound No. 156, Tyr-Asn-Trp-Asn-Ser-Cha-Gly-Leu-Arg-Phe-NH2] (H-YNWNS[Cha]GLRF-NH2)	0.9	2
CC(C)C[C@H](NC(=O)CNC(=O)[C@H](Cc1ccccc1)NC(=O)[C@H](CO)NC(=O)[C@H](CC(N)=O)NC(=O)[C@@H](Cc1c[nH]c2ccccc12)NC(=O)[C@H](CC(N)=O)NC(=O)[C@@H](N)Cc1ccc(O)cc1)C(=O)N[C@@H](CCCNC(=N)N)C(=O)N[C@@H](Cc1ccccc1)C(N)=O [Compound No. 40]	1.6	30
CNC(=N)NCCC[C@H](NC(=O)[C@H](CC(C)C)NC(=O)NNC(=O)[C@H](Cc1ccccc1)NC(=O)[C@H](CO)NC(=O)[C@H](CC(N)=O)NC(=O)[C@@H](Cc1c[nH]c2ccccc12)NC(=O)[C@H](N)Cc1ccc(O)cc1)C(=O)N[C@@H](Cc1ccccc1)C(N)=O [Compound No. 242, D-Tyr-D-Trp-Asn-Ser-Phe-AzaGly-Leu-Arg(Me)-Phe-NH2] (H-[dY][dW]NSF[azaGly]L[Arg(Me)]F-NH2)	1.4	2
CC(C)C[C@H](NC(=O)CNC(=O)[C@H](Cc1ccccc1)NC(=O)[C@H](CO)NC(=O)[C@H](CC(N)=O)NC(=O)CCc1c[nH]c2ccccc12)C(=O)N[C@@H](CCCNC(=N)N)C(=O)N[C@@H](Cc1ccccc1)C(N)=O [Compound No. 114, 3-(3-Indolyl)propionyl-Asn-Ser-Phe-Gly-Leu-Arg-Phe-NH2] ({Propanoyl(3-indol-3-yl)}-NSFGLRF-NH2)	4.1	3
CNC(=N)NCCC[C@H](NC(=O)[C@H](CC(C)C)NC(=O)CNC(=O)[C@H](Cc1ccccc1)NC(=O)[C@H](CO)NC(=O)[C@H](CC(N)=O)NC(=O)[C@H](Cc1c[nH]c2ccccc12)NC(=O)[C@H](CC(N)=O)NC(=O)[C@H](N)Cc1ccc(O)cc1)C(=O)N[C@@H](Cc1c[nH]c2ccccc12)C(N)=O [Compound No. 174] (H-[dY]NWNSFGL[Arg(Me)]W-NH2)	2.3	10
CNC(=N)NCCC[C@H](NC(=O)[C@H](CC(C)C)NC(=O)NNC(=O)[C@H](Cc1ccccc1)NC(=O)[C@H](CO)NC(=O)[C@H](CC(N)=O)NC(=O)[C@@H](Cc1c[nH]c2ccccc12)NC(=O)[C@H](CC(N)=O)NC(=O)[C@H](N)Cc1ccc(O)cc1)C(=O)N[C@@H](Cc1ccccc1)C(N)=O [Compound No. 236, D-Tyr-Asn-D-Trp-Asn-Ser-Phe-AzaGly-Leu-Arg(Me)-Phe-NH2]		2
CNC(=N)NCCC[C@H](NC(=O)[C@H](CC(C)C)NC(=O)CNC(=O)[C@H](Cc1ccccc1)NC(=O)[C@H](CO)NC(=O)[C@H](CC(N)=O)NC(=O)[C@H](CO)NC(=O)[C@H](CC(N)=O)NC(=O)[C@H](N)Cc1ccc(O)cc1)C(=O)N[C@@H](Cc1ccccc1)C(N)=O [Compound No. 170] (H-[dY]NSNSFGL[Arg(Me)]F-NH2)		1
CNC(=N)NCCC[C@H](NC(=O)[C@H](CC(C)C)NC(=O)CNC(=O)[C@H](Cc1ccccc1)NC(=O)[C@H](CO)NC(=O)[C@H](CC(N)=O)NC(=O)[C@@H](NC(=O)[C@H](N)Cc1ccc(O)cc1)[C@@H](C)O)C(=O)N[C@@H](Cc1ccccc1)C(N)=O [Compound No. 227] (H-[dY]TNSFGL[Arg(Me)]F-NH2)		1

— US8778871B2 (Takeda Pharmaceutical Company Limited, priority 2004, dated 2014)
